Measurements reported in patent publication US20230104936A1, “TRPML MODULATORS” (Casma Therapeutics, Inc., priority 2019, published 2023).

system: TFEB; assay: TFEB nuclear translocation assay, HeLa wt cells; type: cell-based; conditions: Homo sapiens, HeLa, 2 h, 2 hrs compound treatment, Table 1 does not say HeLa wt or TRPML1 KO
Summary of the method: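 TFEB translocation into the nucleus of HeLa wt cells is scored by high-content immunofluorescence after 2 hrs of compound treatment at 37° C, reported as AC50.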

How did the AC50 turn out when `COCC1(C)CCN(c2ccccc2NS(=O)(=O)Cc2ccccc2)CC1` [Compound A-532, N-{2-[4-(methoxymethyl)-4-methylpiperidin-1-yl]phenyl}-1-phenylmethanesulfonamide] was run?
The AC50 was no more than 2000 nM.

`CN(C)S(=O)(=O)c1ccc(S(=O)(=O)n2nc(C3CCN(c4c(F)cccc4F)CC3)c3c2CCNC3)cc1` [Compound A-533, 4-({3-[1-(2,6-difluorophenyl)piperidin-4-yl]-1H,4H,5H,6H,7H-pyrazolo[4,3-c]pyridin-1-yl}sulfonyl)-N,N-dimethylbenzene-1-sulfonamide] was tested. Which AC50 did it give?
The AC50 was 2010 to 8000 nM.

`CC(C)(C)C(=O)N1CCN(c2ccccc2NS(=O)(=O)c2ccc3c(c2)CC(Cl)(Cl)C3=O)CC1` [Compound A-534, 2,2-dichloro-N-{2-[4-(2,2-dimethylpropanoyl)piperazin-1-yl]phenyl}-1-oxo-2,3-dihydro-1H-indene-5-sulfonamide] was tested. Which AC50 did it give?
The AC50 was 2010 to 8000 nM.

With `CC(C)(C)C(=O)N1CCN(c2ccccc2NS(=O)(=O)c2ccc(C(C)(C)C#N)cc2)CC1` [Compound A-535, 4-(1-cyano-1-methylethyl)-N-{2-[4-(2,2-dimethylpropanoyl)piperazin-1-yl]phenyl}benzene-1-sulfonamide] as the molecule, how does the AC50 read?
The AC50 was 2010 to 8000 nM.

Which AC50 does the source give for `CC(C)(C)C(=O)N1CCN(c2ccccc2NS(=O)(=O)c2ccc(OC3CCCC3)cc2)CC1` [Compound A-536, 4-(cyclopentyloxy)-N-{2-[4-(2,2-dimethylpropanoyl)piperazin-1-yl]phenyl}benzene-1-sulfonamide] here?
The AC50 was 8010 to 9990 nM.

Which AC50 does the source give for `CC(C)(C)C(=O)N1CCN(c2ccccc2NS(=O)(=O)c2ccc(C(F)(F)C(F)(F)F)cc2)CC1` [Compound A-537, N-{2-[4-(2,2-dimethylpropanoyl)piperazin-1-yl]phenyl}-4-(1,1,2,2,2-pentafluoroethyl)benzene-1-sulfonamide] here?
The AC50 was 8010 to 9990 nM.

Which AC50 does the source give for `COCC1(C)CCN(c2ccccc2NS(=O)(=O)c2ccc(OC)cc2)CC1` [Compound A-538, 4-methoxy-N-{2-[4-(methoxymethyl)-4-methylpiperidin-1-yl]phenyl}benzene-1-sulfonamide] here?
The AC50 was no more than 2000 nM.

`COCC1(C)CCN(c2ccccc2NS(=O)(=O)c2ccc(C)cc2)CC1` [Compound A-539, N-{2-[4-(methoxymethyl)-4-methylpiperidin-1-yl]phenyl}-4-methylbenzene-1-sulfonamide] was tested. Which AC50 did it give?
Its AC50 is no more than 2000 nM.

For `CC(N1CCN(c2ccccc2NS(=O)(=O)c2ccc(S(C)(=O)=O)cc2)CC1)C(F)(F)F` (centres unmarked) [Compound A-540, 4-methanesulfonyl-N-{2-[4-(1,1,1-trifluoropropan-2-yl)piperazin-1-yl]phenyl}benzene-1-sulfonamide], which AC50 is on record?
The AC50 was no more than 2000 nM.

Which AC50 does the source give for `CC(N1CCN(c2ccccc2NS(=O)(=O)c2ccc(Cl)cc2)CC1)C(F)(F)F` (centres unmarked) [Compound A-541, 4-chloro-N-{2-[4-(1,1,1-trifluoropropan-2-yl)piperazin-1-yl]phenyl}benzene-1-sulfonamide] here?
Its AC50 is no more than 2000 nM.

Which AC50 does the source give for `CC(N1CCN(c2ccccc2NS(=O)(=O)Cc2ccccc2)CC1)C(F)(F)F` (centres unmarked) [Compound A-542, 1-phenyl-N-{2-[4-(1,1,1-trifluoropropan-2-yl)piperazin-1-yl]phenyl}methanesulfonamide] here?
Its AC50 is no more than 2000 nM.

With `CN(C)S(=O)(=O)c1ccc(S(=O)(=O)Nc2ccccc2N2CCC(COC(F)F)CC2)cc1` [Compound A-543, N4-(2-{4-[(difluoromethoxy)methyl]piperidin-1-yl}phenyl)-N1,N1-dimethylbenzene-1,4-disulfonamide] as the molecule, how does the AC50 read?
Its AC50 is no more than 2000 nM.

How did the AC50 turn out when `C[C@@H]1CN(CC2CCN(c3ccccc3NS(=O)(=O)c3ccc(S(=O)(=O)N(C)C)cc3)CC2)C[C@H](C)O1` [Compound A-544, N4-[2-(4-{[(2R,6S)-2,6-dimethylmorpholin-4-yl]methyl}piperidin-1-yl)phenyl]-N1,N1-dimethylbenzene-1,4-disulfonamide] was run?
Its AC50 is no more than 2000 nM.

How did the AC50 turn out when `CN(C)S(=O)(=O)c1ccc(S(=O)(=O)Nc2ccccc2N2CCN(C(c3ccccc3)C(F)(F)F)CC2)cc1` (centres unmarked) [Compound A-545, N1,N1-dimethyl-N4-{2-[4-(2,2,2-trifluoro-1-phenylethyl)piperazin-1-yl]phenyl}benzene-1,4-disulfonamide] was run?
Its AC50 is no more than 2000 nM.

Which AC50 does the source give for `CCC1(OC)CCN(c2ccccc2NS(=O)(=O)c2ccc(S(=O)(=O)N(C)C)cc2)CC1` [Compound A-546, N4-[2-(4-ethyl-4-methoxypiperidin-1-yl)phenyl]-N1,N1-dimethylbenzene-1,4-disulfonamide] here?
The AC50 was no more than 2000 nM.

Which AC50 does the source give for `CN(C)S(=O)(=O)c1ccc(S(=O)(=O)Nc2ccccc2N2CCC(CCCN3CCOCC3)CC2)cc1` [Compound A-547, N1,N1-dimethyl-N4-(2-{4-[3-(morpholin-4-yl)propyl]piperidin-1-yl}phenyl)benzene-1,4-disulfonamide] here?
The AC50 was no more than 2000 nM.

`CN(C)S(=O)(=O)c1ccc(S(=O)(=O)Nc2ccccc2N2CCC(C3CCOCC3)CC2)cc1` [Compound A-548, N1,N1-dimethyl-N4-{2-[4-(oxan-4-yl)piperidin-1-yl]phenyl}benzene-1,4-disulfonamide] was tested. Which AC50 did it give?
The AC50 was no more than 2000 nM.

Which AC50 does the source give for `CCN(CC)CC1CCN(c2ccccc2NS(=O)(=O)c2ccc(S(=O)(=O)N(C)C)cc2)CC1` [Compound A-549, N4-(2-{4-[(diethylamino)methyl]piperidin-1-yl}phenyl)-N1,N1-dimethylbenzene-1,4-disulfonamide] here?
The AC50 was 2010 to 8000 nM.

`CN(C)S(=O)(=O)c1ccc(S(=O)(=O)Nc2ccccc2N2CCC(C(F)(F)F)CC2)cc1` [Compound A-550, N1,N1-dimethyl-N4-{2-[4-(trifluoromethyl)piperidin-1-yl]phenyl}benzene-1,4-disulfonamide] was tested. Which AC50 did it give?
Its AC50 is no more than 2000 nM.

`CN(C)S(=O)(=O)c1ccc(S(=O)(=O)Nc2ccccc2N2CCN(CC(F)(F)C(F)F)CC2)cc1` [Compound A-551, N1,N1-dimethyl-N4-{2-[4-(2,2,3,3-tetrafluoropropyl)piperazin-1-yl]phenyl}benzene-1,4-disulfonamide] was tested. Which AC50 did it give?
Its AC50 is no more than 2000 nM.

`CN(C)S(=O)(=O)c1ccc(S(=O)(=O)Nc2ccccc2N2CCN(CC(F)F)CC2)cc1` [Compound A-552, N4-{2-[4-(2,2-difluoroethyl)piperazin-1-yl]phenyl}-N1,N1-dimethylbenzene-1,4-disulfonamide] was tested. Which AC50 did it give?
Its AC50 is no more than 2000 nM.

Which AC50 does the source give for `COCCN1CCN(c2ccccc2NS(=O)(=O)c2ccc(S(=O)(=O)N(C)C)cc2)CC1` [Compound A-553, N4-{2-[4-(2-methoxyethyl)piperazin-1-yl]phenyl}-N1,N1-dimethylbenzene-1,4-disulfonamide] here?
The AC50 was 2010 to 8000 nM.

`CN(C)S(=O)(=O)c1ccc(S(=O)(=O)Nc2ccccc2N2CCC(CN3CCOCC3)CC2)cc1` [Compound A-554, N1,N1-dimethyl-N4-(2-{4-[(morpholin-4-yl)methyl]piperidin-1-yl}phenyl)benzene-1,4-disulfonamide] was tested. Which AC50 did it give?
The AC50 was no more than 2000 nM.

`COCC1(C)CCN(c2ccccc2NS(=O)(=O)c2ccc(OCC3CC3)cc2)CC1` [Compound A-555, 4-(cyclopropylmethoxy)-N-{2-[4-(methoxymethyl)-4-methylpiperidin-1-yl]phenyl}benzene-1-sulfonamide] was tested. Which AC50 did it give?
The AC50 was 2010 to 8000 nM.

For `CC(c1ccccc1N1CCN(C(=O)OCc2ccccc2)CC1)S(=O)(=O)c1ccc(S(=O)(=O)N(C)C)cc1` (centres unmarked) [Compound A-556, benzyl 4-(2-{1-[4-(dimethylsulfamoyl)benzenesulfonyl]ethyl}phenyl)piperazine-1-carboxylate], which AC50 is on record?
Its AC50 is no more than 2000 nM.

For `CC(O)C1(C)CCN(c2ccccc2NS(=O)(=O)c2ccc(S(=O)(=O)N(C)C)cc2)CC1` (centres unmarked) [Compound A-557, N1-(2-(4-(1-hydroxyethyl)-4-methylpiperidin-1-yl)phenyl)-N4,N4-dimethylbenzene-1,4-disulfonamide], which AC50 is on record?
Its AC50 is 2010 to 8000 nM.

Which AC50 does the source give for `CN(C)S(=O)(=O)c1ccc(S(=O)(=O)Nc2ccccc2N2CCC(C)(C3(O)CC3)CC2)cc1` [Compound A-558, N1-(2-(4-(1-hydroxycyclopropyl)-4-methylpiperidin-1-yl)phenyl)-N4,N4-dimethylbenzene-1,4-disulfonamide] here?
The AC50 was 2010 to 8000 nM.

With `CN(C)S(=O)(=O)c1ccc(S(=O)(=O)Nc2ccccc2N2CCN(CCF)CC2)cc1` [Compound A-559, N4-{2-[4-(2-fluoroethyl)piperazin-1-yl]phenyl}-N1,N1-dimethylbenzene-1,4-disulfonamide] as the molecule, how does the AC50 read?
The AC50 was 2010 to 8000 nM.

With `CN(C)S(=O)(=O)c1ccc(S(=O)(=O)Nc2ccccc2N2CCN(CC(F)(F)F)CC2)cc1` [Compound A-560, N1,N1-dimethyl-N4-{2-[4-(2,2,2-trifluoroethyl)piperazin-1-yl]phenyl}benzene-1,4-disulfonamide] as the molecule, how does the AC50 read?
The AC50 was no more than 2000 nM.

How did the AC50 turn out when `Cc1ccc(S(=O)(=O)n2cc3c(N4CCN(C5CCCCC5)CC4)cccc3n2)cc1` [Compound A-561] was run?
Its AC50 is 2010 to 8000 nM.

Which AC50 does the source give for `CN(C)S(=O)(=O)c1ccc(S(=O)(=O)Nc2ccccc2N2CCC3(CCCCO3)CC2)cc1` [Compound A-562, N1,N1-dimethyl-N4-(2-{1-oxa-9-azaspiro[5.5]undecan-9-yl}phenyl)benzene-1,4-disulfonamide] here?
The AC50 was no more than 2000 nM.

Which AC50 does the source give for `COc1ccc(Cl)cc1CS(=O)(=O)Nc1ccccc1N1CCN(C(=O)C(C)(C)C)CC1` [Compound A-563, 1-(5-chloro-2-methoxyphenyl)-N-{2-[4-(2,2-dimethylpropanoyl)piperazin-1-yl]phenyl}methanesulfonamide] here?
Its AC50 is no less than 10000 nM.

Which AC50 does the source give for `CC(C)(C)C(=O)N1CCN(c2ccccc2NS(=O)(=O)C2(c3ccccc3)CC2)CC1` [Compound A-564, N-{2-[4-(2,2-dimethylpropanoyl)piperazin-1-yl]phenyl}-1-phenylcyclopropane-1-sulfonamide] here?
Its AC50 is no more than 2000 nM.

For `CC(C)(C)C(=O)N1CCN(c2ccccc2NS(=O)(=O)Cc2cccc3cccnc23)CC1` [Compound A-565, N-{2-[4-(2,2-dimethylpropanoyl)piperazin-1-yl]phenyl}-1-(quinolin-8-yl)methanesulfonamide], which AC50 is on record?
Its AC50 is 8010 to 9990 nM.

Which AC50 does the source give for `CC(C)(C)C(=O)N1CCN(c2ccccc2NS(=O)(=O)Cc2ccc3ccccc3c2)CC1` [Compound A-566, N-{2-[4-(2,2-dimethylpropanoyl)piperazin-1-yl]phenyl}-1-(naphthalen-2-yl)methanesulfonamide] here?
The AC50 was 2010 to 8000 nM.
